Measurements as given in the supplement of paper PMC10307832.

Compound: CN(NC(=O)CC(=O)NN(C)C(=S)c1ccccc1)C(=S)c1ccccc1 [Elesclomol] + CCNC(=O)c1noc(-c2cc(C(C)C)c(O)cc2O)c1-c1ccc(CN2CCOCC2)cc1 [Luminespib] (partner 0.01 µM)
Assay: relative viability (nuclei count vs DMSO), 5 days (fraction); higher = more cells survive
Method in brief: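 Cells from lung cancer lines were seeded into 1536-well plates and, one day later, dosed by pin tool. Treatments were either a single drug or a fixed dose of an anchor drug with five library-drug doses (not always all listed) in √10 steps. After 5 days, nuclei were stained in a one-step fixation (final 0.05% Triton X-100, 1% formaldehyde, 1 ug/ml Hoechst) and counted on 4× images, and relative viability is the treated-to-vehicle nuclei ratio, as the median of duplicate plates.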

Cell Line	relative viability (first compound 0.003162 µM)	relative viability (first compound 0.01 µM)	relative viability (first compound 0.03162 µM)	relative viability (first compound 0.1 µM)
NCI-H3122	0.083	0.113	0.0663	0.0832
NCI-H727	0.388	0.478	0.22	0.123
NCI-H441	0.312	0.446	0.29	0.111
HOP-62	0.877	0.892	0.962	0.554
RERF-LC-KJ	0.656	0.418	0.34	0.457
HCC-44	1.01	0.86	0.213	0.178
LCLC-103H	0.903	0.734	1.01	0.435
NCI-H1915	0.771		0.768	0.331
ChaGo-K-1	0.524	0.541	0.184	0.128
PC-14	0.11	0.0979	0.0814	0.0429
SK-LU-1	0.206	0.193	0.158	0.124
NCI-H1437	0.967	0.689	0.445	0.436
NCI-H1734	0.189	0.14	0.122	0.108
LK-2	0.197	0.172	0.178	0.136
HCC-15	0.27	0.194	0.11	0.0457
NCI-H650	0.791	0.401	0.196	0.18
NCI-H2347	0.318	0.557	0.282	0.25
